The source of these data is patent US20230113501A1, “TREATMENT OF LEUKEMIAS AND LYMPHOMAS WITH COMBINATIONS OF BCL-2 INHIBITORS AND PLK1 INHIBITORS” (Cardiff Oncology, Inc., priority 2020, published 2023).

Molecules are shown by their SMILES.

One series has as its system AML cell lines. Conditions: cited from earlier work.
The subject of series [1] is OCI-AML3 xenograft. Put plainly: Efficacy of onvansertib alone and in combination with venetoclax in an OCI-AML3 xenograft model (tumor volume, survival). In kind it is in vivo, CB17 NOD.SCID mice. Conditions: onvansertib 40 mg/kg.
For series [2] the following is noted: patients with advanced/metastatic solid tumors, cited from earlier work.
Another series addresses PLK1 (Homo sapiens, UniProt P53350). The following applies: including other PLK members; cited from earlier work.
Series [3] is described as follows: Animal health: body weight and tolerability in the OCI-AML3 xenograft study. The following applies: the values are: relative body weight (ratio to day 0). Type of series: in vivo, CB17 NOD.SCID mice. An excerpt: (§1) CB17 NOD.SCID mice (female, 5 weeks old) were procured through Envigo (Strain NOD.CB17-Prkdc*scidNCrHsd). Mice were fed Teklad irradiated (sterilized) mouse diet and bedded with Teklad irradiated (sterilized) corncob bedding from Envigo (Indianapolis, Ind.). Mice were housed in Optimice carousel sterile quarters with filtered air supply in disposable cages from Animal Care Systems, Inc. (Centennial, Colo.).
(§2) Tumor volumes were monitored, and, when mean tumor volume reached ˜200 mm^3, mice were stratified and placed into (4) treatment groups of (10) mice as outlined in Table 1.
(§3) Treatments were administered by oral gavage (polypropylene needles, Instech, Cat. FTP-20-38) daily for venetoclax for 14 days, and 5 days on 2 days off for two cycles for Onvansertib. For clarity, the combination was dosed so that venetoclax was given daily and the onvansertib was given 5 days on, 2 days off, just like the single agent groups.
All dosing was performed without any unexpected problems noted. […] Therefore, the single agents and combination were tolerated at the tested dose and schedule.
The group average change in weight relative to day 0 of the study is shown in […]

The subject of series [4] is OCI-AML3 xenograft. Kind of series: Efficacy of onvansertib alone and in combination with venetoclax in an OCI-AML3 xenograft model (tumor volume, survival). In kind it is in vivo, CB17 NOD.SCID mice. Conditions: for Average tumor volume: oral gavage; for Mean Diff. (vehicle vs. treatment), Dunnett's multiple comparisons test: tumor volumes from day 14. The method, then: In this example, the efficacy of onvansertib alone and in combination with venetoclax was evaluated in an OCI-AML3 xenograft model.
The OCI-AML3 cell line easily engrafts in NOD/SCID mice, maintaining the typical features of NPMc+ AML, including NPM cytoplasmic expression.
OCI-AML3 cells (DSMZ cat no: ACC 582) were cultured in RPMI supplemented with 10% FBS and 1%P/S, in a humidified incubator at 37° C. and 5% CO2. Normocin (Invivogen) was also added according to the manufacturer's recommendation to prevent mycoplasma growth.
as §1
On the day of implantation (Oct. 8, 2019), OCI-AML3 cells were collected and spun at 400 ×g. Media was aspirated and cells were resuspended in 50:50 *Cultrex:PBS (w/o calcium and magnesium) at a concentration of 1×10^8 cells/mL. A volume of 100 μL was injected into the right hind flank of each animal (a total of 1×10^7 cells). Filled syringes and cells were kept on ice to prevent gelling of matrigel. *Cultrex: BME, type 3, 17.24 mg/mL R&D systems Cat. #3632-005-02, Lot #40498J17
as §2, §3
Individual tumor volumes were measured by electronic caliper 2× a week.
Using tumor volumes from day 14 (the last day with all mice on study), an ordinary ANOVA test with a Dunnett's multiple comparison was performed using Prism (graphpad v. 8.3.0) (Table 4).
A survival graph was plotted (FIG. 2) and survival analysis (death=takedown for tumor burden limit) was also performed using Prism software (individual comparisons of survival curves using the Mantel-Cox test and Gehan-Breslow-Wilcoxon test shown in Table 5).

The mark [5] stands for this setting: Day 0, venetoclax 75 mg/kg, onvansertib 30 mg/kg.
[6] abbreviates: Day 4, venetoclax 75 mg/kg, onvansertib 30 mg/kg.
Where [7] appears, read: Day 7, venetoclax 75 mg/kg, onvansertib 30 mg/kg.
Where [8] appears, read: Day 11, venetoclax 75 mg/kg, onvansertib 30 mg/kg.
[9] abbreviates: Day 14, venetoclax 75 mg/kg, onvansertib 30 mg/kg.
The mark [10] stands for this setting: Day 18, venetoclax 75 mg/kg, onvansertib 30 mg/kg.

Chain of PLK1 (P53350 whole entry): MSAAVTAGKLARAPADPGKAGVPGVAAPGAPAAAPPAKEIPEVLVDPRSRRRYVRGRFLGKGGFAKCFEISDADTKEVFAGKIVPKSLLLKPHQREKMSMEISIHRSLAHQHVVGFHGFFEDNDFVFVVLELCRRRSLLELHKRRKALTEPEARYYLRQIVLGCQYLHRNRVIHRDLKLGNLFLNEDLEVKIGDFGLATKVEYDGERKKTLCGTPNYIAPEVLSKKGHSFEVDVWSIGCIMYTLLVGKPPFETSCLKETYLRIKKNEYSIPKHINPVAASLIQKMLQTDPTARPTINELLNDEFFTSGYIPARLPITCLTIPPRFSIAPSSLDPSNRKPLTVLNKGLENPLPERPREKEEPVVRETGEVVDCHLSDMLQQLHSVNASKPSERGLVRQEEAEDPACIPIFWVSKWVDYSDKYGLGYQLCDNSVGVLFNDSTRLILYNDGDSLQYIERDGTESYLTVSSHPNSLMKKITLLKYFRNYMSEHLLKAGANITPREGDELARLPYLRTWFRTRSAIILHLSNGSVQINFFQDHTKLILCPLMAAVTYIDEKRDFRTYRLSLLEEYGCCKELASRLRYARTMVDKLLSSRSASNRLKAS

In the case of `CN1CCN(c2ccc(OC(F)(F)F)c(Nc3ncc4c(n3)-c3c(c(C(N)=O)nn3CCO)CC4)c2)CC1` [Onvansertib, 1-(2-hydroxyethyl)-8-{[5-(4-methylpiperazin-1l-yl)-2-(trifluoromethoxy)phenyl]amino}-4,5-dihydro-1H-pyrazolo[4,3-h] quinazoline-3-carboxamide], in the series on AML cell lines, the “Concentrations that inhibited cell proliferation” value is given as “nanomolar concentrations”. In addition, the “Single agent activity in the previous study” value in the series on OCI-AML3 xenograft [1] is on record as “single agent activity”. For the same compound, the Half-life in series [2] is 20 and 30 hours. For the same compound, the Primary dose-limiting toxicities result in series [2] (reversible, recovery within 3 weeks) was “neutropenia and thrombocytopenia”. The “Specificity for PLK1 among a panel of 296 kinases” value on PLK1 is reported as “high specificity”. For the same compound, the Relative body weight (ratio to day 0) in series [3] (Day 0) was 1; in series [3] (Day 4), 1.04; in series [3] (Day 7) it was 1.07; in series [3] (Day 11) it was 1.1; in series [3] (Day 14) it was 1.13; in series [3] (Day 18), 1.18. The Average tumor volume in the series on OCI-AML3 xenograft [4] (setting [5]) is 208.48 mm^3; in the series on OCI-AML3 xenograft [4] (setting [6]), 367.54 mm^3; with OCI-AML3 xenograft [4] (setting [7]), 708.38 mm^3; in the series on OCI-AML3 xenograft [4] (setting [8]) it was 980.01 mm^3; in the series with OCI-AML3 xenograft [4] (setting [9]) it was 1461.86 mm^3; in the series with OCI-AML3 xenograft [4] (setting [10]), 2269.05 mm^3. Moreover, in the series on OCI-AML3 xenograft [4], the “Mean Diff. (vehicle vs. treatment), Dunnett's multiple comparisons test” value is given as 960. For the same compound, the “Significant? Dunnett's multiple comparisons test” value in the series with OCI-AML3 xenograft [4] (tumor volumes from day 14, vehicle vs. treatment) is listed as “Yes”. Moreover, the “Survival, Gehan-Breslow-Wilcoxon test, Are the survival curves sig different?” value in the series on OCI-AML3 xenograft [4] (vehicle vs. treatment) was “Yes”. Besides, the “Survival, Log-rank (Mantel-Cox) test, Are the survival curves sig different?” value with OCI-AML3 xenograft [4] (vehicle vs. treatment) is reported as “No”. The “Survival, Log-rank (Mantel-Cox) test, Chi square” value with OCI-AML3 xenograft [4] (vehicle vs. treatment, death = takedown for tumor burden limit) is on record as 3.577. In the series on OCI-AML3 xenograft [4] (vehicle vs. treatment, higher weighing for early events), the “Survival, Gehan-Breslow-Wilcoxon test, Chi square” value is 5.221. Moreover, the “Activity in the OCI-AML3 xenograft (conclusion)” value with OCI-AML3 xenograft [4] (venetoclax 75 mg/kg, onvansertib 30 mg/kg, and the combination) is “Activity was noted”. Moreover, the “Tumor growth inhibition as single agent” value with OCI-AML3 xenograft [4] (venetoclax 75 mg/kg, onvansertib 30 mg/kg) was “some tumor growth inhibition”.
`CC1(C)CCC(CN2CCN(c3ccc(C(=O)NS(=O)(=O)c4ccc(NCC5CCOCC5)c([N+](=O)[O-])c4)c(Oc4cnc5[nH]ccc5c4)c3)CC2)=C(c2ccc(Cl)cc2)C1` [Venetoclax]: the Relative body weight (ratio to day 0) was 1 in series [3] (Day 0); 1.03 in series [3] (Day 4); 1.07 in series [3] (Day 7); 1.09 in series [3] (Day 11); 1.12 in series [3] (Day 14); 1.15 in series [3] (Day 18). Besides, the Average tumor volume in the series on OCI-AML3 xenograft [4] (setting [5]) was 203.78 mm^3; with OCI-AML3 xenograft [4] (setting [6]), 441.01 mm^3; with OCI-AML3 xenograft [4] (setting [7]) it was 861.05 mm^3; in the series with OCI-AML3 xenograft [4] (setting [8]), 1362.15 mm^3; in the series with OCI-AML3 xenograft [4] (setting [9]), 2110.23 mm^3; with OCI-AML3 xenograft [4] (setting [10]) it was 2856.33 mm^3. Also, the “Mean Diff. (vehicle vs. treatment), Dunnett's multiple comparisons test” value in the series on OCI-AML3 xenograft [4] is reported as 311.6.
